The target of assay [1] is isolated recombinant JAK2 kinase domain (Homo sapiens (Human), UniProt O60674). Kind of assay: JAK2 enzyme assay (Caliper LabChip, Ki). The following applies: read-out: JAK2 Ki.
For assay [2], the target named is isolated recombinant JAK1 kinase domain (Homo sapiens (Human), UniProt P23458). Kind of assay: JAK1 enzyme assay (Caliper LabChip, Ki). The assay is classed as biochemical. The method, then:
The activity of the isolated recombinant JAK1 and JAK2 kinase domain was measured by monitoring phosphorylation of a peptide derived from JAK3 ([…] fluorescently labeled on the N-terminus with 5-carboxyfluorescein) using the Caliper LabChip R technology (Caliper Life Sciences, Hopkinton, Mass.).

In assay [3] the test system is JAK1-dependent STAT6 phosphorylation in BEAS-2B human bronchial epithelial cells. The assay is described as follows: JAK1 pathway assay: IL-13 stimulated STAT6 phosphorylation in BEAS-2B cells. It counts as cell-based. The settings on record: Homo sapiens, BEAS-2B, BEAS-2B cells, IL-13 stimulation; read-out: IL-13 p-STAT6 BEAS-2B IC50. As to the method: JAK1 Pathway Assay in Cell Lines was Carried Out as Follows:
Inhibitor potency (EC50) was determined in cell-based assays designed to measure JAK1 dependent STAT phosphorylation.
In one assay approach, TF-1 human erythroleukemia cells obtained from the American Type Culture Collection (ATCC; Manassas, Va.) were used to measure JAK1-dependent STAT6 phosphorylation downstream of IL-13 stimulation. Prior to use in the assays, TF-1 cells were starved of GM-CSF overnight in OptiMEM medium (Life Technologies, Grand Island, N.Y.) supplemented with 0.5% charcoal/dextran stripped fetal bovine serum (FBS), 0.1 mM non-essential amino acids (NEAA), and 1 mM sodium pyruvate. The assays were run in 384-well plates in serum-free OptiMEM medium using 300,000 cells per well. In a second assay approach, BEAS-2B human bronchial epithelial cells obtained from ATCC were plated at 100,000 cells per well of a 96-well plate one day prior to the experiment. The BEAS-2B assay was run in complete growth medium (bronchial epithelial basal medium plus bulletkit; Lonza; Basel, Switzerland).
Test compounds were serially diluted 1:2 in DMSO and then diluted 1:50 in medium just before use. Diluted compounds were added to the cells, for a final DMSO concentration of 0.2%, and incubated for 30 min (for the TF-1 assay) or 1 hr (for the BEAS-2B assay) at 37° C. Then, cells were stimulated with human recombinant cytokine at their respective EC90 concentrations, as previously determined for each individual lot. Cells were stimulated with IL-13 (R&D Systems, Minneapolis, Minn.) for 15 min at 37° C. […] The resultant samples were frozen in the plates at −80° C. Compound mediated inhibition of STAT6 phosphorylation was measured in the cell lysates using MesoScale Discovery (MSD) technology (Gaithersburg, Md.).

Drawing on patent publication US11155557B2, “Pyrazolopyrimidine compounds and methods of use thereof” (Genentech, Inc., priority 2016, dated 2021), this text covers Ki and IC50 for nine compounds.

By Ki is commonly meant the dissociation constant of the complex between target and ligand, obtained from inhibition or displacement. The term IC50 denotes the concentration needed to halve the response being measured.

isolated recombinant JAK1 kinase domain, sequence (P23458 875-1153): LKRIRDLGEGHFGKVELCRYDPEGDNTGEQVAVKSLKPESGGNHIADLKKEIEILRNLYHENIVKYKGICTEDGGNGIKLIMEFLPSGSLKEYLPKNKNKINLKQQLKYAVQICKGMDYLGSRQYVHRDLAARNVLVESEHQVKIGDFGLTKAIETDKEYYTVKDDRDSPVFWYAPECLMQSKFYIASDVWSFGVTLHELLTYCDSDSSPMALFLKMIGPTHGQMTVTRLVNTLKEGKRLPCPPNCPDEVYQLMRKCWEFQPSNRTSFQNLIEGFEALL
isolated recombinant JAK2 kinase domain, sequence (O60674 849-1124): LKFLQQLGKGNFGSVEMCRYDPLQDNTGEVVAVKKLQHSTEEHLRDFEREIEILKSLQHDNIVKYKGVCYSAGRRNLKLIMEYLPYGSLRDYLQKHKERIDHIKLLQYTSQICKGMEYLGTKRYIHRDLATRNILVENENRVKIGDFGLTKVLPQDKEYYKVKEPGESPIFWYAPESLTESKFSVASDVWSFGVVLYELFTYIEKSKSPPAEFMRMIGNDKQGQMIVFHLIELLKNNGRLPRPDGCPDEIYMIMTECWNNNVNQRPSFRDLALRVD

As to `O=C(Nc1cn(C2CCCNC2)nc1-c1cc2ccccc2cc1OC(F)F)c1cnn2cccnc12` (racemic) [Example 5, N-(3-(3-(difluoromethoxy)naphthalen-2-yl)-1-(piperidin-3-yl)-1H-pyrazol-4-yl)pyrazolo[1,5-a]pyrimidine-3-carboxamide], the results for the inhibitory constant (Ki) in assay [1] and in assay [2] were 0.78 nM and 1.21 nM, respectively. Moreover, the IC50 in assay [3] was determined as 31 nM.
In the case of `O=C(Nc1c[nH]nc1-c1cc2c(cc1OC(F)F)CC(CO)O2)c1cnn2cccnc12` (racemic) [Example 15, N-(3-(5-(difluoromethoxy)-2-(hydroxymethyl)-2,3-dihydrobenzofuran-6-yl)-1H-pyrazol-4-yl)pyrazolo[1,5-a]pyrimidine-3-carboxamide], the Ki worked out at 0.24 nM in assay [1] and 0.69 nM in assay [2]. Moreover, in assay [3], the half-maximal inhibitory concentration (IC50) came to 143 nM.
Taken in the same sequence, the figures for `NCC1CNc2cc(OC(F)F)c(-c3n[nH]cc3NC(=O)c3cnn4cccnc34)cc2S1` (racemic) [Example 38, N-[3-[2-(aminomethyl)-6-(difluoromethoxy)-3,4-dihydro-2H-1,4-benzothiazin-7-yl]-1H-pyrazol-4-yl]pyrazolo[1,5-a]pyrimidine-3-carboxamide] were 0.29 nM, 0.33 nM and more than 1000 nM.
For the compound `CC1CSc2cc(-c3n[nH]cc3NC(=O)c3cnn4cccnc34)c(OC(F)F)cc2N1` (racemic) [Example 41, N-[3-[6-(difluoromethoxy)-3-methyl-3,4-dihydro-2H-1,4-benzothiazin-7-yl]-1H-pyrazol-4-yl]pyrazolo[1,5-a]pyrimidine-3-carboxamide], the inhibition constant Ki is 0.06 nM in assay [1] and 0.08 nM in assay [2]. Further, in assay [3], the IC50 amounted to 4 nM.
For `CN1CCCC(n2cc(NC(=O)c3cnn4cccnc34)c(-c3cc4cn[nH]c4cc3OC(F)F)n2)C1` (racemic) [Example 74, N-[3-[6-(difluoromethoxy)-1H-indazol-5-yl]-1-(1-methyl-3-piperidyl)pyrazol-4-yl]pyrazolo[1,5-a]pyrimidine-3-carboxamide], the results for the Ki in assay [1] and in assay [2] were 0.98 nM and 1.63 nM, respectively. The IC50 in assay [3] was 18 nM.
Taken in the same sequence, the figures for `CN1CCCC1Cn1cc(NC(=O)c2cnn3cccnc23)c(-c2cc3cn[nH]c3cc2OC(F)F)n1` (racemic) [Example 75, N-[3-[6-(difluoromethoxy)-1H-indazol-5-yl]-1-[(1-methylpyrrolidin-2-yl)methyl]pyrazol-4-yl]pyrazolo[1,5-a]pyrimidine-3-carboxamide] were 0.26 nM, 0.31 nM and 11 nM.
As to `O=C(O)Cn1cc(NC(=O)c2cnn3cccnc23)c(-c2cc3ccccc3cc2OC(F)F)n1` [Example 2, 2-(3-(3-(difluoromethoxy)naphthalen-2-yl)-4-(pyrazolo[1,5-a]pyrimidine-3-carboxamido)-1H-pyrazol-1-yl)acetic acid], the Ki in assay [2] came out at 0.64 nM. Further, the IC50 in assay [3] is 128 nM.
Consider `CC(C)(C)OC(=O)N1CCC(C(=O)Cn2ncc3cc(-c4n[nH]cc4NC(=O)c4cnn5cccnc45)c(OC(F)F)cc32)CC1` [Example 18, tert-butyl 4-(2-(6-(difluoromethoxy)-5-(4-(pyrazolo[1,5-a]pyrimidine-3-carboxamido)-1H-pyrazol-3-yl)-1H-indazol-1-yl)acetyl)piperidine-1-carboxylate], for which the inhibition constant (Ki) in assay [1] was found to be 2.59 nM; in assay [2] it was 8.02 nM.
Taken in the same sequence, the figures for `COc1cc2sc(C(N)=O)cc2cc1-c1n[nH]cc1NC(=O)c1cnn2cccnc12` [Example 23, N-(3-(2-carbamoyl-6-methoxybenzo[b]thiophen-5-yl)-1H-pyrazol-4-yl)pyrazolo[1,5-a]pyrimidine-3-carboxamide] were 6.01 nM and 9.27 nM.
